This note sets out measurements from PubChem BioAssay (NCI).

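How tested: cells in 96-well plates exposed to compound for 48 hours at five concentrations. TGI: concentration producing complete growth inhibition.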 Some results are limits rather than exact numbers.

What all share (assay): NCI anticancer screen, dose series, 48 h
The subject of assay [1] is HL-60(TB) leukemia.
The subject of assay [2] is MOLT-4 leukemia.
For assay [3], the system named is TK-10 renal.
In assay [4] the test system is CAKI-1 renal.
Assay [5] has as its system K-562 leukemia.
In assay [6] the test system is HCT-15 colon.
Assay [7] concerns HOP-62 NSCLC.
Assay [8] has as its system T-47D breast.
Assay [9] relates to OVCAR-5 ovarian.
The test system of assay [10] is HCT-116 colon.

Regarding `OC12C3C4CC5C(C4[C@@H]1Br)C2[C@@](O)(c1c(F)c(F)c(F)c(F)c1F)C53` (stereo not given in full), the TGI was above 100 µM in assay [1]; above 100 µM in assay [2]; above 100 µM in assay [3]; 43.8 µM in assay [4]; 61.5 µM in [5]; above 100 µM in assay [6]. For the same compound, the TGI in [7], in assay [8], in [9] and in assay [10] was above 100 µM in each case.
With `O=c1[nH]nc(Cc2ccccc2)n1/N=C/c1ccc([N+](=O)[O-])o1`, the TGI was above 100 µM in assay [1]; above 100 µM in assay [2]; 17.6 µM in assay [3]; 25 µM in [4]; above 100 µM in [5]; above 100 µM in [6]. The TGI in [7] was found to be 22 µM; in assay [8], 79.1 µM; in assay [9], 26.1 µM; in assay [10], 6.13 µM.
Take `OCCN1CN(c2nc(N3CN(CCO)C3)nc(N3CN(CCO)C3)n2)C1`: the TGI was 40.1 µM in [1]; above 100 µM in assay [2]; 78.7 µM in [3]; 58.2 µM in [4]; 87.3 µM in assay [5]; 46.7 µM in assay [6]. Further, the TGI in assay [7] is 39.2 µM; in [8], 64.7 µM; in [9], 60.2 µM; in [10], 42 µM.
On to `CCOP(=O)(CC1CC(O)(CNc2cc(Cl)nc(N)n2)C1)OCC` (stereo not given), for which the TGI in assay [1], in [2], in assay [3], in [4], in assay [5] and in [6] was above 100 µM throughout. Further, the TGI in [7], in assay [8], in assay [9] and in assay [10] was above 100 µM each time.
As to `COC(=O)C1=C(O)C(C(=O)OC)[C@]2(O)[C@H](C(=O)OC)[C@H]1C[C@@H](c1cccc(OC)c1)[C@H]2C(=O)OC` (stereo not given in full), the TGI in [1] was above 100 µM; in assay [2], above 100 µM; in assay [3] it was above 100 µM; in assay [4] it was 73.3 µM; in assay [5], above 100 µM; in [6] it was 86.3 µM. The TGI is 89.5 µM in assay [7], above 100 µM in [8], 66.4 µM in assay [9] and 65.6 µM in [10].
With `O=C1c2n[nH]nc2C(=O)c2n[nH]nc21`, the TGI in assay [1], in [2], in [3], in assay [4], in assay [5] and in [6] was above 100 µM each time. The TGI in assay [7], in assay [8], in assay [9] and in assay [10] was above 100 µM each time.
As to `N#Cc1nc(C(F)(F)F)oc1N`, the TGI in [1], in assay [2], in assay [3], in [4], in [5] and in assay [6] was above 100 µM in each case. Moreover, the TGI in assay [7], in assay [8], in assay [9] and in assay [10] was above 100 µM throughout.
As for `CN1[C@@H]2CCCC[C@H]2N(C)P1(=O)C(O)/C=C/c1ccccc1` (stereo not given in full), the TGI in assay [1], in assay [2], in [3], in [4], in assay [5] and in assay [6] was above 100 µM throughout. Further, the TGI in [7], in assay [8], in assay [9] and in assay [10] was above 100 µM throughout.
On to `O=S(=O)(O)c1ccc2c(N=Nc3ccccc3)c(O)c(S(=O)(=O)O)cc2c1`, for which the TGI in assay [1], in assay [2], in assay [3], in assay [4], in assay [5] and in [6] was above 100 µM in each case. Also, the TGI in assay [7], in [8], in [9] and in assay [10] was above 100 µM throughout.
Take `N#CN=C1c2ccccc2C(=NC#N)c2cc(CO)ccc21`: the TGI was 60.7 µM in assay [1]; 59 µM in assay [2]; above 100 µM in [3]; above 100 µM in assay [4]; 80.7 µM in [5]; above 100 µM in [6]. In addition, the TGI is above 100 µM in assay [7], 89.2 µM in assay [8], above 100 µM in assay [9] and above 100 µM in assay [10].
As for `CC(/C=N/N(C)C1=NCCCCN1)=N/N(C)C1=NCCCCN1`, the TGI in [1], in assay [2], in assay [3], in [4], in assay [5] and in [6] was above 100 µM in each case. For the same compound, the TGI in assay [7], in [8], in assay [9] and in assay [10] was above 100 µM in each case.
